This passage reports IC50 results from patent US20230183292A1, “IMMUNOMODULATORS” (priority 2020, published 2023).

The structures appear in SMILES notation. Positions of bridges follow the written chain, without caps; N, C: chain ends. Non-standard residues stand in square brackets, D forms with d. Residues, ends and D or L forms follow the SMILES beside them. *: point of attachment. Chenodeoxycholyl = C[C@H](CCC(=O)*)[C@H]1CC[C@H]2[C@@H]3[C@H](O)C[C@@H]4C[C@H](O)CC[C@]4(C)[C@H]3CC[C@]12C; Ursodeoxycholyl = C[C@H](CCC(=O)*)[C@H]1CC[C@H]2[C@@H]3[C@@H](O)C[C@@H]4C[C@H](O)CC[C@]4(C)[C@H]3CC[C@]12C; Cholyl = C[C@H](CCC(=O)*)[C@H]1CC[C@H]2[C@@H]3[C@H](O)C[C@@H]4C[C@H](O)CC[C@]4(C)[C@H]3C[C@H](O)[C@]12C; Deoxycholoyl = C[C@H](CCC(=O)*)[C@H]1CC[C@H]2[C@@H]3CC[C@@H]4C[C@H](O)CC[C@]4(C)[C@H]3C[C@H](O)[C@]12C; Lithocholoyl = C[C@H](CCC(=O)*)[C@H]1CC[C@H]2[C@@H]3CC[C@@H]4C[C@H](O)CC[C@]4(C)[C@H]3CC[C@]12C; X36 = C[C@H](CCC(=O)*)[C@H]1CC[C@H]2[C@@H]3CC[C@@H]4C[C@H](O)CC[C@]4(C)[C@H]3CC(O)[C@]12C; Trp(1-CH2CO2Me) = COC(=O)Cn1cc(C[C@H](N)C(=O)O)c2ccccc21; Trp(1-CH2COOH) = N[C@@H](Cc1cn(CC(=O)O)c2ccccc12)C(=O)O; Hyp = O=C(O)[C@@H]1C[C@@H](O)CN1; NMeNle = CCCC[C@H](NC)C(=O)O; NMeA = CN[C@@H](C)C(=O)O; Dab = NCC[C@H](N)C(=O)O; Dap = NC[C@H](N)C(=O)O

One may read the IC50 as the concentration that gives 50% inhibition.

T1 sequence (Q9NZQ7 18-239): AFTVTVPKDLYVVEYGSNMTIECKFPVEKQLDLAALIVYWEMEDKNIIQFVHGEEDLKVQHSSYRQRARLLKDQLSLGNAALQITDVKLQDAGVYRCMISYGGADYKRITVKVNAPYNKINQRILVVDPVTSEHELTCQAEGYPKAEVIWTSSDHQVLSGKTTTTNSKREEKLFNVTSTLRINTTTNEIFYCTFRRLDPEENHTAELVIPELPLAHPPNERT

This assay concerns the target T1, PD-1/PD-L1 (Homo sapiens, UniProt Q9NZQ7).
T1 construct: TVMV protease site (C); made in house; host or cells: HEK293T cells
The assay can be described thus: PD-1/PD-L1 Homogenous Time-Resolved Fluorescence (HTRF) binding assay. The settings on record: PD-L1-His 10 nM, PD-1-Ig 20 nM; read-out: HTRF IC50. An excerpt: The ability of the compounds of formula (I) to bind to PD-L1 was investigated using a PD-1/PD-L1 Homogenous Time-Resolved Fluorescence (HTRF) binding assay.
The interaction of PD-1 and PD-L1 can be assessed using soluble, purified preparations of the extracellular domains of the two proteins. The PD-1 and PD-L1 protein extracellular domains were expressed as fusion proteins with detection tags, for PD-1, the tag was the Fc portion of Immunoglobulin (PD-1-Ig) and for PD-L1 it was the 6 histidine motif (PD-L1-His). All binding studies were performed in an HTRF assay buffer consisting of dPBS supplemented with 0.1% […] bovine serum albumin and 0.05% (v/v) Tween-20. For the h/PD-L1-His binding assay, inhibitors were pre-incubated with PD-L1-His (10 nM final) for 15 m in 4 μl of assay buffer, followed by addition of PD-1-Ig (20 nM final) in 1 μl of assay buffer and further incubation for 15 m. HTRF detection was achieved using europium crypate-labeled anti-Ig (1 nM final) and allophycocyanin (APC) labeled anti-His (20 nM final). Antibodies were diluted in HTRF detection buffer and 5 μl was dispensed on top of the binding reaction. The reaction mixture was allowed to equilibrate for 30 minutes and the resulting signal (665 nm/620 nm ratio) was obtained using an EnVision fluorometer. Additional binding assays were established between the human proteins PD-1-Ig/PD-L2-His (20 & 5 nM, respectively) and CD80-His/PD-L1-Ig (100 & 10 nM, respectively).
Recombinant Proteins: Human PD-1 (25-167) with a C-terminal human Fc domain of immunoglobulin G (Ig) epitope tag [hPD-1 (25-167)-3S-IG] and human PD-L1 (18-239) with a C-terminal His epitope tag [hPD-L1(18-239)-TVMV-His] were expressed in HEK293T cells and purified sequentially by ProteinA affinity chromatography and size exclusion chromatography. Human PD-L2-His and CD80-His was obtained through commercial sources.
Table 1 lists the IC50 values for representative examples of this disclosure measured in the PD-1/PD-L1 Homogenous Time-Resolved Fluorescence (HTRF) binding assay.
On the technique in general: In TR-FRET formats the signal depends on donor and acceptor labels being close together.
Consider `CCCC[C@H]1C(=O)N(C)[C@@H](CCCC)C(=O)N[C@@H](CC(C)C)C(=O)N[C@H](C(=O)NCC(N)=O)CSCC(=O)N[C@@H](Cc2ccc(O)cc2)C(=O)N(C)[C@@H](C)C(=O)N[C@@H](CC(N)=O)C(=O)N2CCC[C@H]2C(=O)N[C@@H](CNC(=O)CC[C@@H](C)[C@H]2CC[C@H]3[C@@H]4CC[C@@H]5C[C@H](O)CC[C@]5(C)[C@H]4C[C@H](O)[C@]23C)C(=O)N[C@@H](CC(C)C)C(=O)N2C[C@H](O)C[C@H]2C(=O)N[C@@H](Cc2c[nH]c3ccccc23)C(=O)N[C@@H](CCNC(=O)CC[C@@H](C)[C@H]2CC[C@H]3[C@@H]4[C@H](O)C[C@@H]5C[C@H](O)CC[C@]5(C)[C@H]4CC[C@]23C)C(=O)N[C@@H](Cc2cn(CC(=O)OC)c3ccccc23)C(=O)N1C` [Example 1001] ({CH2CO}-Y[NMeA]NP[Dap](Deoxycholoyl)L[Hyp]W[Dab](Chenodeoxycholyl)[Trp(1-CH2CO2Me)][NMeNle][NMeNle]LCG-NH2; thioether N-14), for which the IC50 turned out to be 9.5 nM.

On to `CCCC[C@H]1C(=O)N(C)[C@@H](CCCC)C(=O)N[C@@H](CC(C)C)C(=O)N[C@H](C(=O)NCC(N)=O)CSCC(=O)N[C@@H](Cc2ccc(O)cc2)C(=O)N(C)[C@@H](C)C(=O)N[C@@H](CC(N)=O)C(=O)N2CCC[C@H]2C(=O)N[C@@H](CNC(=O)CC[C@@H](C)[C@H]2CC[C@H]3[C@@H]4CC[C@@H]5C[C@H](O)CC[C@]5(C)[C@H]4C[C@H](O)[C@]23C)C(=O)N[C@@H](CC(C)C)C(=O)N2C[C@H](O)C[C@H]2C(=O)N[C@@H](Cc2c[nH]c3ccccc23)C(=O)N[C@@H](CCNC(=O)CC[C@@H](C)[C@H]2CC[C@H]3[C@@H]4[C@H](O)C[C@@H]5C[C@H](O)CC[C@]5(C)[C@H]4CC[C@]23C)C(=O)N[C@@H](Cc2cn(CC(=O)O)c3ccccc23)C(=O)N1C` [Example 1002] ({CH2CO}-Y[NMeA]NP[Dap](Deoxycholoyl)L[Hyp]W[Dab](Chenodeoxycholyl)[Trp(1-CH2COOH)][NMeNle][NMeNle]LCG-NH2; thioether N-14), for which the concentration for half-maximal inhibition (IC50) came to 11 nM. `CCCC[C@H]1C(=O)N(C)[C@@H](CCCC)C(=O)N[C@@H](CC(C)C)C(=O)N[C@H](C(=O)NCC(N)=O)CSCC(=O)N[C@@H](Cc2ccc(O)cc2)C(=O)N(C)[C@@H](C)C(=O)N[C@@H](CC(N)=O)C(=O)N2CCC[C@H]2C(=O)N[C@@H](CNC(=O)CC[C@@H](C)[C@H]2CC[C@H]3[C@@H]4CC[C@@H]5C[C@H](O)CC[C@]5(C)[C@H]4C[C@H](O)[C@]23C)C(=O)N[C@@H](CC(C)C)C(=O)N2C[C@H](O)C[C@H]2C(=O)N[C@@H](Cc2c[nH]c3ccccc23)C(=O)N[C@@H](CCNC(=O)CC[C@@H](C)[C@H]2CC[C@H]3[C@@H]4CC[C@@H]5C[C@H](O)CC[C@]5(C)[C@H]4CC(O)[C@]23C)C(=O)N[C@@H](Cc2cn(CC(=O)OC)c3ccccc23)C(=O)N1C` (stereo partly shown) [Example 1003] ({CH2CO}-Y[NMeA]NP[Dap](Deoxycholoyl)L[Hyp]W[Dab](X36)[Trp(1-CH2CO2Me)][NMeNle][NMeNle]LCG-NH2; thioether N-14): the IC50 was greater than 10000 nM.

As for `CCCC[C@H]1C(=O)N(C)[C@@H](CCCC)C(=O)N[C@@H](CC(C)C)C(=O)N[C@H](C(=O)NCC(N)=O)CSCC(=O)N[C@@H](Cc2ccc(O)cc2)C(=O)N(C)[C@@H](C)C(=O)N[C@@H](CC(N)=O)C(=O)N2CCC[C@H]2C(=O)N[C@@H](CNC(=O)CC[C@@H](C)[C@H]2CC[C@H]3[C@@H]4CC[C@@H]5C[C@H](O)CC[C@]5(C)[C@H]4CC[C@]23C)C(=O)N[C@@H](CC(C)C)C(=O)N2C[C@H](O)C[C@H]2C(=O)N[C@@H](Cc2c[nH]c3ccccc23)C(=O)N[C@@H](CCNC(=O)CC[C@@H](C)[C@H]2CC[C@H]3[C@@H]4CC[C@@H]5C[C@H](O)CC[C@]5(C)[C@H]4CC[C@]23C)C(=O)N[C@@H](Cc2cn(CC(=O)OC)c3ccccc23)C(=O)N1C` [Example 1004] ({CH2CO}-Y[NMeA]NP[Dap](Lithocholoyl)L[Hyp]W[Dab](Lithocholoyl)[Trp(1-CH2CO2Me)][NMeNle][NMeNle]LCG-NH2; thioether N-14), the IC50 is greater than 10000 nM.

For the compound `CCCC[C@H]1C(=O)N(C)[C@@H](CCCC)C(=O)N[C@@H](CC(C)C)C(=O)N[C@H](C(=O)NCC(N)=O)CSCC(=O)N[C@@H](Cc2ccc(O)cc2)C(=O)N(C)[C@@H](C)C(=O)N[C@@H](CC(N)=O)C(=O)N2CCC[C@H]2C(=O)N[C@@H](CNC(=O)CC[C@@H](C)[C@H]2CC[C@H]3[C@@H]4[C@H](O)C[C@@H]5C[C@H](O)CC[C@]5(C)[C@H]4CC[C@]23C)C(=O)N[C@@H](CC(C)C)C(=O)N2C[C@H](O)C[C@H]2C(=O)N[C@@H](Cc2c[nH]c3ccccc23)C(=O)N[C@@H](CCNC(=O)CC[C@@H](C)[C@H]2CC[C@H]3[C@@H]4[C@H](O)C[C@@H]5C[C@H](O)CC[C@]5(C)[C@H]4CC[C@]23C)C(=O)N[C@@H](Cc2cn(CC(=O)OC)c3ccccc23)C(=O)N1C` [Example 1005] ({CH2CO}-Y[NMeA]NP[Dap](Chenodeoxycholyl)L[Hyp]W[Dab](Chenodeoxycholyl)[Trp(1-CH2CO2Me)][NMeNle][NMeNle]LCG-NH2; thioether N-14), the IC50 stood at 8400 nM. For `CCCC[C@H]1C(=O)N(C)[C@@H](CCCC)C(=O)N[C@@H](CC(C)C)C(=O)N[C@H](C(=O)NCC(N)=O)CSCC(=O)N[C@@H](Cc2ccc(O)cc2)C(=O)N(C)[C@@H](C)C(=O)N[C@@H](CC(N)=O)C(=O)N2CCC[C@H]2C(=O)N[C@@H](CNC(=O)CC[C@@H](C)[C@H]2CC[C@H]3[C@@H]4[C@@H](O)C[C@@H]5C[C@H](O)CC[C@]5(C)[C@H]4CC[C@]23C)C(=O)N[C@@H](CC(C)C)C(=O)N2C[C@H](O)C[C@H]2C(=O)N[C@@H](Cc2c[nH]c3ccccc23)C(=O)N[C@@H](CCNC(=O)CC[C@@H](C)[C@H]2CC[C@H]3[C@@H]4[C@@H](O)C[C@@H]5C[C@H](O)CC[C@]5(C)[C@H]4CC[C@]23C)C(=O)N[C@@H](Cc2cn(CC(=O)OC)c3ccccc23)C(=O)N1C` [Example 1006] ({CH2CO}-Y[NMeA]NP[Dap](Ursodeoxycholyl)L[Hyp]W[Dab](Ursodeoxycholyl)[Trp(1-CH2CO2Me)][NMeNle][NMeNle]LCG-NH2; thioether N-14), the IC50 was greater than 10000 nM. `CCCC[C@H]1C(=O)N(C)[C@@H](CCCC)C(=O)N[C@@H](CC(C)C)C(=O)N[C@H](C(=O)NCC(N)=O)CSCC(=O)N[C@@H](Cc2ccc(O)cc2)C(=O)N(C)[C@@H](C)C(=O)N[C@@H](CC(N)=O)C(=O)N2CCC[C@H]2C(=O)N[C@@H](CNC(=O)CC[C@@H](C)[C@H]2CC[C@H]3[C@@H]4[C@H](O)C[C@@H]5C[C@H](O)CC[C@]5(C)[C@H]4C[C@H](O)[C@]23C)C(=O)N[C@@H](CC(C)C)C(=O)N2C[C@H](O)C[C@H]2C(=O)N[C@@H](Cc2c[nH]c3ccccc23)C(=O)N[C@@H](CCN)C(=O)N[C@@H](Cc2cn(CC(=O)OC)c3ccccc23)C(=O)N1C` [Example 1007] ({CH2CO}-Y[NMeA]NP[Dap](Cholyl)L[Hyp]W[Dab][Trp(1-CH2CO2Me)][NMeNle][NMeNle]LCG-NH2; thioether N-14): the IC50 was determined as 6.8 nM.
